From PubChem BioAssay AID330 (DTP/NCI, 2004)
Several values for one entry are separate records, joined by “and”; a condition that tells them apart may be missing. Equal entries are not always repeated. Toxic doses and inconclusive results are not listed.

Tested on: P388 leukemia ip, CD2F1 mice, survival T/C
Experiment: NCI In Vivo Anticancer Drug Screen. Data for tumor model P388 Leukemia (intraperitoneal) in CD2F1 (CDF1) mice
Conditions: endpoint: median survival time, higher = longer survival
Summary of the method: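 Mice carrying the transplanted tumor received test compound or vehicle. Survival was recorded in each group, and the value is the treated-group measurement divided by that of the vehicle-treated control group.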

[1] = dose: 3.0 mg/kg/injection, schedule: Q01DX009 (ip), vehicle: saline
[2] = dose: 50.0 mg/kg/injection, schedule: Q01DX005 (ip), vehicle: Klucel (hydroxypropylcellulose) (HPC)
[3] = dose: 100.0 mg/kg/injection, schedule: Q01DX005 (ip), vehicle: Klucel (hydroxypropylcellulose) (HPC)
[4] = dose: 100.0 mg/kg/injection, schedule: Q04DX002 (ip), vehicle: Klucel (hydroxypropylcellulose) (HPC)
[5] = dose: 200.0 mg/kg/injection, schedule: Q04DX002 (ip), vehicle: Klucel (hydroxypropylcellulose) (HPC)
[6] = dose: 50.0 mg/kg/injection, schedule: Q01DX005 (ip), vehicle: saline with Tween-80
[7] = dose: 100.0 mg/kg/injection, schedule: Q01DX005 (ip), vehicle: saline with Tween-80
[8] = dose: 200.0 mg/kg/injection, schedule: Q01DX005 (ip), vehicle: saline with Tween-80
[9] = dose: 50.0 mg/kg/injection, schedule: Q04DX003 (ip), vehicle: saline with Tween-80
[10] = dose: 12.5 mg/kg/injection, schedule: Q01DX005 (ip), vehicle: Klucel (hydroxypropylcellulose) (HPC)
[11] = dose: 25.0 mg/kg/injection, schedule: Q01DX005 (ip), vehicle: Klucel (hydroxypropylcellulose) (HPC)

SMILES: COc1cc(O)c2c(=O)c3c(O)c(OC4OC(COC5OC(C)C(O)C(O)C5O)C(O)C(O)C4O)ccc3oc2c1 (configuration not stated)
- T/C (dose: 1.5 mg/kg/injection, schedule: Q01DX009 (ip), vehicle: saline): 107 % of control
- T/C [1]: 103 % of control
- T/C (dose: 6.0 mg/kg/injection, schedule: Q01DX009 (ip), vehicle: saline): 100 % of control
- T/C (dose: 12.0 mg/kg/injection, schedule: Q01DX009 (ip), vehicle: saline): 99 % of control

SMILES: CCOc1ccc(Nc2ncnc3nc[nH]c23)cc1CN(CCCl)CCCl
- T/C (dose: 0.88 mg/kg/injection, schedule: Q01DX009 (ip), vehicle: saline): 154 % of control
- T/C (dose: 2.0 mg/kg/injection, schedule: Q01DX009 (ip), vehicle: saline): 159 % of control
- T/C [1]: 122 % of control

SMILES: CCOC(=O)C(Cc1ccc(N(CCCl)CCCl)cc1)NC(=O)C(CC(C)C)NC(C)=O (configuration not stated)
- T/C (dose: 3.12 mg/kg/injection, schedule: Q01DX009 (ip), vehicle: Klucel (hydroxypropylcellulose) (HPC)): 162 % of control
- T/C (dose: 5.0 mg/kg/injection, schedule: Q04DX003 (ip), vehicle: water): 105 % of control
- T/C (dose: 6.25 mg/kg/injection, schedule: Q01DX009 (ip), vehicle: Klucel (hydroxypropylcellulose) (HPC)): 172 % of control
- T/C (dose: 10.0 mg/kg/injection, schedule: Q04DX003 (ip), vehicle: water): 107 % of control
- T/C (dose: 12.5 mg/kg/injection, schedule: Q01DX009 (ip), vehicle: Klucel (hydroxypropylcellulose) (HPC)): 241 % of control and 254 % of control
- T/C (dose: 20.0 mg/kg/injection, schedule: Q04DX003 (ip), vehicle: water): 108 % of control
- T/C (dose: 25.0 mg/kg/injection, schedule: Q01DX009 (ip), vehicle: Klucel (hydroxypropylcellulose) (HPC)): 119 % of control
- T/C (dose: 40.0 mg/kg/injection, schedule: Q04DX003 (ip), vehicle: other): 122 % of control
- T/C (dose: 40.0 mg/kg/injection, schedule: Q04DX003 (ip), vehicle: water): 109 % of control
- T/C (dose: 50.0 mg/kg/injection, schedule: Q01DX009 (ip), vehicle: Klucel (hydroxypropylcellulose) (HPC)): 104 % of control and 97 % of control
- T/C (dose: 80.0 mg/kg/injection, schedule: Q04DX003 (ip), vehicle: other): 116 % of control

SMILES: c1ccc(C2=N[C@@H](N3CCCCC3)[C@H](N3CCCCC3)N2c2ccccc2)cc1
- T/C [2]: 105 % of control
- T/C [3]: 100 % of control
- T/C (dose: 200.0 mg/kg/injection, schedule: Q01DX005 (ip), vehicle: Klucel (hydroxypropylcellulose) (HPC)): 98 % of control

SMILES: O=C(S)CC(O)(CCl)c1ccc(-c2ccccc2)cc1 (configuration not stated)
- T/C [4]: 113 % of control
- T/C [5]: 101 % of control

SMILES: CCO/C(C)=N/NC(=O)c1n[nH]c2ccccc12
- T/C [6]: 92 % of control
- T/C [7]: 91 % of control
- T/C [8]: 90 % of control

SMILES: CC1=C2CCC(O)C2(C)CCC(=O)C1 (configuration not stated)
- T/C (dose: 100.0 mg/kg/injection, schedule: Q04DX003 (ip), vehicle: Klucel (hydroxypropylcellulose) (HPC)): 105 % of control
- T/C (dose: 200.0 mg/kg/injection, schedule: Q04DX003 (ip), vehicle: Klucel (hydroxypropylcellulose) (HPC)): 99 % of control

SMILES: CCOc1nc(N)nc(C)c1N=Nc1ccc(Cl)cc1Cl
- T/C (dose: 60.0 mg/kg/injection, schedule: Q01DX005 (ip), vehicle: Klucel + Tween-80): 100 % of control
- T/C (dose: 120.0 mg/kg/injection, schedule: Q01DX005 (ip), vehicle: Klucel + Tween-80): 110 % of control

SMILES: O=c1cc(CCl)[nH]nc1CCl
- T/C (dose: 14.5 mg/kg/injection, schedule: Q04DX003 (ip), vehicle: saline with Tween-80): 160 % of control
- T/C (dose: 33.0 mg/kg/injection, schedule: Q04DX003 (ip), vehicle: saline with Tween-80): 158 % of control
- T/C [9]: 173 % of control

SMILES: C1CNNCCNN1
- T/C (dose: 50.0 mg/kg/injection, schedule: Q01DX009 (ip), vehicle: saline): 112 % of control
- T/C (dose: 100.0 mg/kg/injection, schedule: Q01DX009 (ip), vehicle: saline): 106 % of control and 108 % of control and 90 % of control
- T/C (dose: 200.0 mg/kg/injection, schedule: Q01DX009 (ip), vehicle: saline): 109 % of control and 115 % of control and 89 % of control
- T/C (dose: 400.0 mg/kg/injection, schedule: Q01DX009 (ip), vehicle: saline): 112 % of control and 120 % of control and 93 % of control
- T/C (dose: 800.0 mg/kg/injection, schedule: Q01DX009 (ip), vehicle: saline): 121 % of control

SMILES: O=C(CNC(=O)OCc1ccccc1)NCC(=O)NC(Cc1c[nH]c2ccccc12)C(=O)O (configuration not stated)
- T/C (dose: 50.0 mg/kg/injection, schedule: Q01DX005 (ip), vehicle: suspension in saline): 99 % of control
- T/C (dose: 100.0 mg/kg/injection, schedule: Q01DX005 (ip), vehicle: suspension in saline): 97 % of control
- T/C (dose: 200.0 mg/kg/injection, schedule: Q01DX005 (ip), vehicle: suspension in saline): 105 % of control

SMILES: N=c1c(C(=O)OCc2ccccc2)ncc(CCl)n1O
- T/C (dose: 25.0 mg/kg/injection, schedule: Q01DX009 (ip), vehicle: saline with Tween-80): 114 % of control
- T/C (dose: 50.0 mg/kg/injection, schedule: Q01DX009 (ip), vehicle: saline with Tween-80): 124 % of control
- T/C (dose: 100.0 mg/kg/injection, schedule: Q01DX009 (ip), vehicle: saline with Tween-80): 123 % of control
- T/C (dose: 200.0 mg/kg/injection, schedule: Q01DX009 (ip), vehicle: saline with Tween-80): 116 % of control

SMILES: NCC1CC2c3ccccc3C1c1ccccc12 (configuration not stated)
- T/C [10]: 103 % of control
- T/C [11]: 97 % of control
- T/C [2]: 99 % of control and 95 % of control
- T/C [3]: 106 % of control

SMILES: CC(C)c1ccc(N2C=Nc3ccc(C(C)C)cc3C2)cc1
- T/C (dose: 50.0 mg/kg/injection, schedule: Q01DX009 (ip), vehicle: other): 92 % of control
- T/C (dose: 100.0 mg/kg/injection, schedule: Q01DX009 (ip), vehicle: other): 99 % of control
- T/C (dose: 200.0 mg/kg/injection, schedule: Q01DX009 (ip), vehicle: other): 99 % of control

SMILES: CNC(=S)N/N=C(C)/C=C/c1ccc(OC)cc1
- T/C [4]: 104 % of control
- T/C [5]: 100 % of control
- T/C (dose: 400.0 mg/kg/injection, schedule: Q04DX002 (ip), vehicle: Klucel (hydroxypropylcellulose) (HPC)): 91 % of control

SMILES: C=C(C)CC1(CCCCCCCCCC)C(=O)NC(=O)NC1=O
- T/C [9]: 105 % of control
- T/C (dose: 100.0 mg/kg/injection, schedule: Q04DX003 (ip), vehicle: saline with Tween-80): 102 % of control
- T/C (dose: 200.0 mg/kg/injection, schedule: Q04DX003 (ip), vehicle: saline with Tween-80): 93 % of control

SMILES: CCCC(=O)C1C(c2ccccc2)CC(=O)C(CC)C1c1ccccc1 (configuration not stated)
- T/C (dose: 12.5 mg/kg/injection, schedule: Q01DX005 (ip), vehicle: saline with Tween-80): 90 % of control
- T/C (dose: 25.0 mg/kg/injection, schedule: Q01DX005 (ip), vehicle: saline with Tween-80): 95 % of control
- T/C [6]: 88 % of control and 90 % of control
- T/C [8]: 88 % of control

SMILES: O=C(Nc1cc(Cl)cc(Cl)c1)N1CCOCC1
- T/C (dose: 60.0 mg/kg/injection, schedule: Q01DX005 (ip), vehicle: saline with Tween-80): 92 % of control
- T/C (dose: 120.0 mg/kg/injection, schedule: Q01DX005 (ip), vehicle: saline with Tween-80): 92 % of control
- T/C (dose: 240.0 mg/kg/injection, schedule: Q01DX005 (ip), vehicle: saline with Tween-80): 92 % of control

SMILES: O=C([O][Sn]([O]C(=O)c1ccccc1)([c]1ccccc1)[c]1ccccc1)c1ccccc1
- T/C (dose: 3.12 mg/kg/injection, schedule: Q01DX005 (ip), vehicle: Klucel (hydroxypropylcellulose) (HPC)): 111 % of control
- T/C (dose: 6.25 mg/kg/injection, schedule: Q01DX005 (ip), vehicle: Klucel (hydroxypropylcellulose) (HPC)): 116 % of control and 123 % of control
- T/C [10]: 111 % of control and 123 % of control
- T/C [11]: 151 % of control

SMILES: O=C(O)CCCc1ccc2c(c1)OCO2
- T/C [6]: 113 % of control
- T/C [7]: 98 % of control
- T/C [8]: 106 % of control

SMILES: Cc1ccc2sc3c(ccc(=O)n3C)c(=O)c2c1
- T/C (dose: 100.0 mg/kg/injection, schedule: Q04DX002 (ip), vehicle: saline with Tween-80): 115 % of control
- T/C (dose: 200.0 mg/kg/injection, schedule: Q04DX002 (ip), vehicle: saline with Tween-80): 120 % of control

SMILES: CCN(CC)CC(C)Nc1cc(C)nc2c1ccc1c2ccc2c(NC(C)CN(CC)CC)cc(C)nc21 (configuration not stated)
- T/C (dose: 12.5 mg/kg/injection, schedule: Q01DX009 (ip), vehicle: distilled water + Tween-80): 113 % of control
- T/C (dose: 25.0 mg/kg/injection, schedule: Q01DX009 (ip), vehicle: distilled water + Tween-80): 111 % of control
- T/C (dose: 50.0 mg/kg/injection, schedule: Q01DX009 (ip), vehicle: distilled water + Tween-80): 119 % of control
